In brackets after ≈: the same amount, converted by molar mass.
Legend:
[1] = tested on: Parabacteroides distasonis; test: Antimicrobial activity against Parabacteroides distasonis by Wadsworth agar dilution method; type: functional
Bacteroides fragilis = test: Antimicrobial activity against Bacteroides fragilis by Wadsworth agar dilution method; type: functional
Bacteroides ovatus = test: Antimicrobial activity against Bacteroides ovatus by Wadsworth agar dilution method; type: functional
[2] = tested on: Bacteroides thetaiotaomicron; test: Antimicrobial activity against Bacteroides thetaiotaomicron by Wadsworth agar dilution method; type: functional
Bacteroides uniformis = test: Antimicrobial activity against Bacteroides uniformis by Wadsworth agar dilution method; type: functional
Desulfovibrio vulgaris = test: Antimicrobial activity against Desulfovibrio vulgaris by Wadsworth agar dilution method; type: functional; settings: Nitratidesulfovibrio vulgaris
Fusobacterium nucleatum = test: Antimicrobial activity against Fusobacterium nucleatum by Wadsworth agar dilution method; type: functional
Fusobacterium mortiferum = test: Antimicrobial activity against Fusobacterium mortiferum by Wadsworth agar dilution method in presence of beta-lactamase inhibitor Sulbactam; type: functional
[3] = tested on: Fusobacterium necrophorum; test: Antimicrobial activity against Fusobacterium necrophorum by Wadsworth agar dilution method; type: functional
Porphyromonas somerae = test: Antimicrobial activity against Porphyromonas somerae by Wadsworth agar dilution method; type: functional
Prevotella bivia = test: Antimicrobial activity against Prevotella bivia by Wadsworth agar dilution method; type: functional
Prevotella disiens = test: Antimicrobial activity against Prevotella disiens by Wadsworth agar dilution method; type: functional
Prevotella intermedia = test: Antimicrobial activity against Prevotella intermedia by Wadsworth agar dilution method; type: functional
Clostridioides difficile = test: Antimicrobial activity against Clostridium difficile by Wadsworth agar dilution method; type: functional
[4] = tested on: Clostridium acetobutylicum; test: Antimicrobial activity against Clostridium acetobutylicum by Wadsworth agar dilution method; type: functional
Clostridium bartlettii = test: Antimicrobial activity against Clostridium bartlettii by Wadsworth agar dilution method; type: functional; settings: Intestinibacter bartlettii
Clostridium beijerinckii = test: Antimicrobial activity against Clostridium beijerinckii by Wadsworth agar dilution method; type: functional
[5] = tested on: Paraclostridium bifermentans; test: Antimicrobial activity against Clostridium bifermentans by Wadsworth agar dilution method; type: functional
Clostridium glycolicum = test: Antimicrobial activity against Clostridium glycolicum by Wadsworth agar dilution method; type: functional; settings: Terrisporobacter glycolicus
Tissierella praeacuta = test: Antimicrobial activity against Clostridium hastiforme by Wadsworth agar dilution method; type: functional
Clostridium scindens = test: Antimicrobial activity against Clostridium scindens by Wadsworth agar dilution method; type: functional
Clostridium septicum = test: Antimicrobial activity against Clostridium septicum by Wadsworth agar dilution method; type: functional
Clostridium sp. = test: Antimicrobial activity against Clostridium sp. by Wadsworth agar dilution method; type: functional
Clostridium spiroforme = test: Antimicrobial activity against Clostridium spiroforme by Wadsworth agar dilution method; type: functional; settings: Thomasclavelia spiroformis
Clostridium subterminale = test: Antimicrobial activity against Clostridium subterminale by Wadsworth agar dilution method; type: functional
Schaalia meyeri = test: Antimicrobial activity against Actinomyces meyeri by Wadsworth agar dilution method; type: functional
Schaalia odontolytica = test: Antimicrobial activity against Actinomyces odontolyticus by Wadsworth agar dilution method; type: functional
Bifidobacterium dentium = test: Antimicrobial activity against Bifidobacterium dentium by Wadsworth agar dilution method; type: functional
[6] = Antimicrobial activity against Bifidobacterium infantis by Wadsworth agar dilution method; type: functional, Bifidobacterium longum subsp. infantis; settings: Bifidobacterium longum
Bifidobacterium longum = test: Antimicrobial activity against Bifidobacterium longum by Wadsworth agar dilution method; type: functional
[7] = tested on: Bifidobacterium pseudolongum; test: Antimicrobial activity against Bifidobacterium pseudolongum by Wadsworth agar dilution method; type: functional
[8] = tested on: Coprobacillus cateniformis; test: Antimicrobial activity against Coprobacillus cateniformis by Wadsworth agar dilution method; type: functional
Eggerthella lenta = test: Antimicrobial activity against Eggerthella lenta by Wadsworth agar dilution method; type: functional
Eubacterium cylindroides = test: Antimicrobial activity against Eubacterium cylindroides by Wadsworth agar dilution method; type: functional; settings: Faecalitalea cylindroides
Eubacterium limosum = test: Antimicrobial activity against Eubacterium limosum by Wadsworth agar dilution method; type: functional
Eubacterium rectale = test: Antimicrobial activity against Eubacterium rectale by Wadsworth agar dilution method; type: functional; settings: Agathobacter rectalis
[9] = tested on: Lactobacillus acidophilus; test: Antimicrobial activity against Lactobacillus acidophilus by Wadsworth agar dilution method; type: functional
[10] = tested on: Lactiplantibacillus plantarum; test: Antimicrobial activity against Lactobacillus plantarum by Wadsworth agar dilution method; type: functional
[11] = tested on: Limosilactobacillus reuteri; test: Antimicrobial activity against Lactobacillus reuteri by Wadsworth agar dilution method; type: functional
Lactobacillus sp. = test: Antimicrobial activity against Lactobacillus sp. by Wadsworth agar dilution method; type: functional
Cutibacterium acnes = test: Antimicrobial activity against Propionibacterium acnes by Wadsworth agar dilution method; type: functional
Propionibacterium avidum = test: Antimicrobial activity against Propionibacterium avidum by Wadsworth agar dilution method; type: functional; settings: Cutibacterium avidum
Anaerococcus tetradius = test: Antimicrobial activity against Anaerococcus tetradius by Wadsworth agar dilution method; type: functional
[12] = tested on: Peptoniphilus asaccharolyticus; test: Antimicrobial activity against Peptoniphilus asaccharolyticus by Wadsworth agar dilution method; type: functional
Ruminococcus gnavus = test: Antimicrobial activity against Ruminococcus gnavus by Wadsworth agar dilution method; type: functional; settings: Mediterraneibacter gnavus
Ruminococcus lactaris = test: Antimicrobial activity against Ruminococcus lactaris by Wadsworth agar dilution method; type: functional
Ruminococcus obeum = test: Antimicrobial activity against Ruminococcus obeum by Wadsworth agar dilution method; type: functional; settings: Blautia obeum

CO[C@H]1/C=C/O[C@@]2(C)Oc3c(C)c(O)c4c(O)c(c5c(nc6cc(C)ccn65)c4c3C2=O)NC(=O)/C(C)=C\C=C\[C@H](C)[C@H](O)[C@@H](C)[C@@H](O)[C@@H](C)[C@H](OC(C)=O)[C@@H]1C [RIFAXIMIN]
MIC [1]: 0.25 µg/mL (≈ 0.318 µM) | MIC50 [1]: 0.25 µg/mL (≈ 0.318 µM) | MIC90 [1]: 1 µg/mL (≈ 1.27 µM) | MIC (Bacteroides fragilis): 0.25 µg/mL (≈ 0.318 µM) | MIC50 (Bacteroides fragilis): 0.25 µg/mL (≈ 0.318 µM) | MIC90 (Bacteroides fragilis): > 1020 µg/mL | MIC50 (Bacteroides ovatus): 1 µg/mL (≈ 1.27 µM) | MIC90 (Bacteroides ovatus): 1 µg/mL (≈ 1.27 µM) | MIC50 [2]: 1 µg/mL (≈ 1.27 µM) | MIC90 [2]: > 1020 µg/mL | MIC (Bacteroides uniformis): 0.25 µg/mL (≈ 0.318 µM) | MIC50 (Bacteroides uniformis): 0.25 µg/mL (≈ 0.318 µM) | MIC90 (Bacteroides uniformis): 0.5 µg/mL (≈ 0.636 µM) | MIC50 (Desulfovibrio vulgaris): 16 µg/mL (≈ 20.4 µM) | MIC90 (Desulfovibrio vulgaris): 332 µg/mL (≈ 422 µM) | MIC50 (Fusobacterium nucleatum): 2 µg/mL (≈ 2.54 µM) | MIC90 (Fusobacterium nucleatum): 8 µg/mL (≈ 10.2 µM) | MIC50 (Fusobacterium mortiferum): 16 µg/mL | MIC90 (Fusobacterium mortiferum): > 1020 µg/mL | MIC50 [3]: 16 µg/mL (≈ 20.4 µM) | MIC90 [3]: > 1020 µg/mL | MIC (Porphyromonas somerae): 0.25 µg/mL (≈ 0.318 µM) | MIC50 (Porphyromonas somerae): 0.25 µg/mL (≈ 0.318 µM) | MIC90 (Porphyromonas somerae): 0.5 µg/mL (≈ 0.636 µM) | MIC (Prevotella bivia): 0.25 µg/mL (≈ 0.318 µM) | MIC50 (Prevotella bivia): 0.25 µg/mL (≈ 0.318 µM) | MIC90 (Prevotella bivia): 0.5 µg/mL (≈ 0.636 µM) | MIC (Prevotella disiens): 0.25 µg/mL (≈ 0.318 µM) | MIC50 (Prevotella disiens): 0.25 µg/mL (≈ 0.318 µM) | MIC90 (Prevotella disiens): 0.5 µg/mL (≈ 0.636 µM) | MIC (Prevotella intermedia): 0.25 µg/mL (≈ 0.318 µM) | MIC50 (Prevotella intermedia): 0.25 µg/mL (≈ 0.318 µM) | MIC90 (Prevotella intermedia): 0.5 µg/mL (≈ 0.636 µM) | MIC50 (Clostridioides difficile): 0.25 µg/mL (≈ 0.318 µM) | MIC90 (Clostridioides difficile): 0.25 µg/mL (≈ 0.318 µM) | MIC [4]: 0.25 µg/mL (≈ 0.318 µM) | MIC50 [4]: 0.25 µg/mL (≈ 0.318 µM) | MIC90 [4]: > 1020 µg/mL | MIC (Clostridium bartlettii): 0.25 µg/mL (≈ 0.318 µM) | MIC50 (Clostridium bartlettii): 0.25 µg/mL (≈ 0.318 µM) | MIC90 (Clostridium bartlettii): > 1020 µg/mL | MIC (Clostridium beijerinckii): 0.25 µg/mL (≈ 0.318 µM) | MIC50 (Clostridium beijerinckii): 0.25 µg/mL (≈ 0.318 µM) | MIC90 (Clostridium beijerinckii): > 1020 µg/mL | MIC [5]: 0.25 µg/mL (≈ 0.318 µM) | MIC50 [5]: 0.25 µg/mL (≈ 0.318 µM) | MIC90 [5]: > 1020 µg/mL | MIC (Clostridium glycolicum): 0.25 µg/mL (≈ 0.318 µM) | MIC50 (Clostridium glycolicum): 0.25 µg/mL (≈ 0.318 µM) | MIC90 (Clostridium glycolicum): > 1020 µg/mL | MIC (Tissierella praeacuta): 0.25 µg/mL (≈ 0.318 µM) | MIC50 (Tissierella praeacuta): 0.25 µg/mL (≈ 0.318 µM) | MIC90 (Tissierella praeacuta): > 1020 µg/mL | MIC (Clostridium scindens): 0.25 µg/mL (≈ 0.318 µM) | MIC50 (Clostridium scindens): 0.25 µg/mL (≈ 0.318 µM) | MIC90 (Clostridium scindens): > 1020 µg/mL | MIC (Clostridium septicum): 0.25 µg/mL (≈ 0.318 µM) | MIC50 (Clostridium septicum): 0.25 µg/mL (≈ 0.318 µM) | MIC90 (Clostridium septicum): > 1020 µg/mL | MIC (Clostridium sp.): 0.25 µg/mL (≈ 0.318 µM) | MIC50 (Clostridium sp.): 0.25 µg/mL (≈ 0.318 µM) | MIC90 (Clostridium sp.): > 1020 µg/mL | MIC (Clostridium spiroforme): 0.25 µg/mL (≈ 0.318 µM) | MIC50 (Clostridium spiroforme): 0.25 µg/mL (≈ 0.318 µM) | MIC90 (Clostridium spiroforme): > 1020 µg/mL | MIC (Clostridium subterminale): 0.25 µg/mL (≈ 0.318 µM) | MIC50 (Clostridium subterminale): 0.25 µg/mL (≈ 0.318 µM) | MIC90 (Clostridium subterminale): > 1020 µg/mL | MIC50 (Schaalia meyeri): 0.5 µg/mL (≈ 0.636 µM) | MIC90 (Schaalia meyeri): > 1020 µg/mL | MIC50 (Schaalia odontolytica): 0.5 µg/mL (≈ 0.636 µM) | MIC90 (Schaalia odontolytica): > 1020 µg/mL | MIC50 (Bifidobacterium dentium): 0.5 µg/mL (≈ 0.636 µM) | MIC90 (Bifidobacterium dentium): > 1020 µg/mL | MIC50 [6]: 0.5 µg/mL (≈ 0.636 µM) | MIC90 [6]: > 1020 µg/mL | MIC50 (Bifidobacterium longum): 0.5 µg/mL (≈ 0.636 µM) | MIC90 (Bifidobacterium longum): > 1020 µg/mL | MIC50 [7]: 0.5 µg/mL (≈ 0.636 µM) | MIC90 [7]: > 1020 µg/mL | MIC50 [8]: 0.5 µg/mL (≈ 0.636 µM) | MIC90 [8]: > 1020 µg/mL | MIC50 (Eggerthella lenta): 0.5 µg/mL (≈ 0.636 µM) | MIC90 (Eggerthella lenta): > 1020 µg/mL | MIC50 (Eubacterium cylindroides): 0.5 µg/mL (≈ 0.636 µM) | MIC90 (Eubacterium cylindroides): > 1020 µg/mL | MIC50 (Eubacterium limosum): 0.5 µg/mL (≈ 0.636 µM) | MIC90 (Eubacterium limosum): > 1020 µg/mL | MIC50 (Eubacterium rectale): 0.5 µg/mL (≈ 0.636 µM) | MIC90 (Eubacterium rectale): > 1020 µg/mL | MIC50 [9]: 0.5 µg/mL (≈ 0.636 µM) | MIC90 [9]: > 1020 µg/mL | MIC50 [10]: 0.5 µg/mL (≈ 0.636 µM) | MIC90 [10]: > 1020 µg/mL | MIC50 [11]: 0.5 µg/mL (≈ 0.636 µM) | MIC90 [11]: > 1020 µg/mL | MIC50 (Lactobacillus sp.): 0.5 µg/mL (≈ 0.636 µM) | MIC90 (Lactobacillus sp.): > 1020 µg/mL | MIC50 (Cutibacterium acnes): 0.5 µg/mL (≈ 0.636 µM) | MIC90 (Cutibacterium acnes): > 1020 µg/mL | MIC50 (Propionibacterium avidum): 0.5 µg/mL (≈ 0.636 µM) | MIC90 (Propionibacterium avidum): > 1020 µg/mL | MIC (Anaerococcus tetradius): 0.25 µg/mL (≈ 0.318 µM) | MIC50 (Anaerococcus tetradius): 0.25 µg/mL (≈ 0.318 µM) | MIC90 (Anaerococcus tetradius): 4 µg/mL (≈ 5.09 µM) | MIC [12]: 0.25 µg/mL (≈ 0.318 µM) | MIC50 [12]: 0.25 µg/mL (≈ 0.318 µM) | MIC90 [12]: 4 µg/mL (≈ 5.09 µM) | MIC (Ruminococcus gnavus): 0.25 µg/mL (≈ 0.318 µM) | MIC50 (Ruminococcus gnavus): 0.25 µg/mL (≈ 0.318 µM) | MIC90 (Ruminococcus gnavus): 4 µg/mL (≈ 5.09 µM) | MIC (Ruminococcus lactaris): 0.25 µg/mL (≈ 0.318 µM) | MIC50 (Ruminococcus lactaris): 0.25 µg/mL (≈ 0.318 µM) | MIC90 (Ruminococcus lactaris): 4 µg/mL (≈ 5.09 µM) | MIC (Ruminococcus obeum): 0.25 µg/mL (≈ 0.318 µM) | MIC50 (Ruminococcus obeum): 0.25 µg/mL (≈ 0.318 µM) | MIC90 (Ruminococcus obeum): 4 µg/mL (≈ 5.09 µM)

— ChEMBL document CHEMBL1275577, “Study of the in vitro activities of rifaximin and comparator agents against 536 anaerobic intestinal bacteria from the perspective of potential utility in pathology involving bowel flora” (Antimicrob Agents Chemother, 2009)
